Data on two compounds can be found in US5985926A, “Method for inhibiting intracellular viral replication” (Cell Therapeutics, Inc., priority 1997, dated 1999).

The subject of assay [1] is HIV-1 in U1 cells (IL-6 mediated expression). Description: IL-6-mediated HIV-1 p24 antigen expression in chronically infected U1 cells. The assay is classed as cell-based, HIV-1; human cells. The procedure: FIG. 17 illustrates a dose response curves of CT2576 on constitutive, TNF-α, and IL-6-mediated expression of HIV-1 in a chronically infected U1 cell line (left Y-axis) and of CT3537 on HIV expression in PBL acutely infected with the JR-CSF primary isolate (right Y-axis). U1 cells were incubated for four days after the addition of CT2576 with or without TNF-α (20 pg/ml) or IL-6 (1 ng/ml). PBL were inoculated with HIV at 10 ng virus/10^6 cells/well and incubated with various concentrations of CT3537 for 7 days. Each data point represents the average expression levels of HIV-1 p24-antigen in the cell supernatants measured by ELISA from triplicate samples with error bar indicating the SD.
Stable cell lines 293tar, 293tat and 293tat2 were generated by transfections using conditions described in (Tate et al., FASEB J. 4:227-231, 1990) with the plasmid pHIV.AP alone or along with either pHIV.tat or pSV2tat72, respectively. The assay of HIV-1 p24 antigen expression in the chronically HIV-1-infected promonocytic line U1 after 4 days and in acutely infected peripheral blood lymphocytes (PBL) after 7 days were described (Peterson et al., J. Clin. Invest. 89:574-580, 1992, and Brighty et al., Proc Natl. Acad. Sci. USA 88:7802-7805, 1991).
This example illustrates that CT2576 inhibited both constitutive and cytokine-induced HIV expression in a chronically-infected U1 cell line. A chronically HIV-1 infected human promonocyte cell line, U1 (Poli et al., J. Exp. Med. 172:151-158, 1990), was used as a model to see if the inhibitory effect of CT2576 on HIV-LTR driven reporter gene expression could be extended to block HIV replication per se in infected cells. TNF-α and IL-6 have been reported to upregulate the expression of HIV-1 in U1 cells (Poli et al., Proc Natl. Acad. Sci. USA 91:108-112, 1994). U1 cells were plated onto 24-well microtiter plates to study the dose-response effect of CT2576 on the constitutive (10^4 cells/well), TNF-α or IL-6 mediated (2×10^3 cells/well) expression of HIV-1. […]

Assay [2] relates to HIV-LTR promoter (tat transactivation) in 293-EBNA cells. Briefly: AP reporter gene expression from HIV-LTR promoter with tat expression vector, 293-EBNA cells. Type of assay: cell-based, HIV; human cells. Particulars: 293-EBNA cells, HIV promoter, in words. The method, boiled down: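 293-EBNA cells were transiently co-transfected with an HIV-LTR-driven secreted placental alkaline phosphatase reporter and a tat(1–72) expression plasmid. At 24 h, the medium was switched to serum-free AIM V before compounds were added at various concentrations. Secreted AP activity was read colorimetrically at 405 nm 19–24 h later.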
On the technique in general: Reporter assays use an easily measured gene product as a stand-in for the process of interest.

Broadly, the IC50 is the concentration needed to halve the response being measured.

The structures appear in SMILES notation. Read-outs that look alike come from different tables or passages of the source.

As to `CCCCCCCCNCC(O)CCCCCCCCCn1c(=O)c2c(ncn2C)n(C)c1=O` (stereo not shown) [CT2576, 1-(11-octylamino-10-hydroxyundecyl)-3,7-dimethylxanthine], the IC50 is around 1 µM in assay [1] (Human immunodeficiency virus 1, 96 h, read-out: IC50, IL-6 mediated HIV expression, U1 cells, 4 days) and below 1 µM in assay [1] (U1 cells, 4 days, read-out: IC50, IL-6 mediated HIV expression). For the same compound, the “inhibition of IL-6 mediated HIV-1 expression (p24)” value in assay [1] (U1 cells, in words) is recorded as “inhibited”.
Consider `CCCCCCCCNCC(O)CCCCCCCCCN1C(=O)CCN(C)C1=O` (stereo not shown) [CT1829, 3-(11-octylamino-10-hydroxyundecyl)-1-methyldihydrouracil], for which the “inhibition of AP expression (HIV-LTR promoter)” value in assay [2] is reported as “inhibit HIV promoter driven expression”.
